{
  "source": "patent US20230293537A1",
  "about": "“USE OF ACETAMIDE DERIVATIVE IN PREVENTION AND TREATMENT OF ALZHEIMER'S DISEASE” (ACADEMY OF MILITARY MEDICAL SCIENCES, priority 2020, published 2023)",
  "tested_on": "5×FAD transgenic mice",
  "experiment": "Morris water maze test of spatial learning and memory in 5×FAD transgenic mice",
  "assay_type": "in vivo",
  "text": "Animals: 5×FAD transgenic mice, male, SPF grade, initial body weight of 25-35 g; provided by Zhang Cheng Laboratory of Peking University. Male 5×FAD transgenic mice produced by breeding 5×FAD transgenic mice with WT mice and their littermate WT mice were used for the experiments, weighing 27-35 g. The 5×FAD transgenic mice were used as acute AD mouse model, the mice could develop AD pathological features at two or three months old, and behavioral changes appeared at five months old. The mice were administered at four months old, and after continuous administration for two months, the spatial learning and memory abilities of the mice were tested by water maze.\n(1) Administration: 4-month-old mice were divided into four groups, namely WT (physiological saline), 5×FAD (physiological saline), 5×FAD (YL-IPA08, 0.3 mg/kg), 5×FAD (YL-IPA08, 1 mg/kg), intragastrically (i.g.) administered, once a day. After continuous administration for 8 weeks, the spatial learning and memory ability of the mice were tested by Morris water maze.\n(2) Morris water maze test: The Morris water maze test was performed after 8 weeks of the administration of YL-IPA08 (0.3, 1 mg/kg). The water maze consisted of a circular stainless steel pool with a diameter of 120 cm and a depth of 60 cm, and the diameter of the escape platform was 10 cm. The day before the test, the mice were allowed to swim in the water maze for 30 s-60 s to acclimate to the environment. During the training, the mice were allowed to swim freely for 60 s to find the platform. If the mice found the hidden platform autonomously, they were allowed to stay there for 30 seconds, and then taken out. If the mice could not find the platform autonomously, they were guided onto the platform and allowed to stay there for 30 seconds, and then taken out. Training was performed twice a day for 5-7 days until the latency of WT mice to find the platform no longer decreased, and the latency, distance and path of the mice to find the hidden platform in the water maze were recorded. The test was performed 24 hours after the last training session, in which the platform was removed, and the mice were allowed to explore freely in the water maze for 1 minute, and the number of times the mice crossed the position of the platform and the time they stayed in the quadrant of the platform were recorded. There were 8-10 mice per group.\nAll data were presented by x±SEM. Data statistics and analysis were performed using GraphPad Prism 6.0. Significant differences were assessed by unpaired Student's t test, one-way ANOVA or two-way ANOVA followed by Tukey's multiple comparison test.",
  "key": {"[1]": {"settings": "5×FAD transgenic mice, YL-IPA08 0.3, 1 mg/kg i.g. once a day for 8 weeks, 6 days training, vs solvent control group of 5×FAD mice"}},
  "data": [
    {"molecule": "CCN(Cc1ccccn1)C(=O)Cc1c(-c2ccc(Cl)c(Cl)c2)nc2cc(C)ccn12.Cl", "note": "[YL-IPA08, N-ethyl-N-(2-pyridylmethyl)-2-[2-(3,4-dichlorophenyl)-7-methyl-imidazo[1,2-a]pyridin-3-yl]-acetamide·hydrochloride]", "values": [
      {"measurement": "learning and cognitive impairment in 5×FAD mice (overall conclusion)", "setting": "5×FAD mice, 0.3, 1 mg/kg i.g. once a day for 8 weeks, Morris water maze", "value": "can improve learning and cognitive impairment"},
      {"measurement": "average swimming speed (test period)", "setting": "5×FAD transgenic mice, 0.3, 1 mg/kg i.g. once a day for 8 weeks, comparison of the mice in each group", "value": "not significantly different"},
      {"measurement": "number of times the mice crossed the platform (test period)", "setting": "5×FAD transgenic mice, 0.3, 1 mg/kg i.g. once a day for 8 weeks, test 24 hours after last training, platform removed, 1 minute, vs solvent control group", "value": "significantly higher"},
      {"measurement": "distance to find the platform (water maze training)", "setting": "[1]", "value": "significantly shortened"},
      {"measurement": "latency to find the platform (water maze training)", "setting": "[1]", "value": "significantly shortened"}
    ]}
  ]
}
